Consider 2 sequences from patent US12502435B2, “Metastatic brain tumor targeting peptides” (H. Lee Moffitt Cancer Center and Research Institute, Inc., priority 2018, dated 2025).

For test [1], the system named is Lung Cancer Brain Metastases Cells (MH1002, MH1016, H1915). Description: flow cytometry binding of peptide to lung cancer brain metastases cells. As to conditions: compared to primary lung cancer cells and non-targeting peptides. The source says:
FIGS. 2A to 2C show binding of BRDT (LBM1) peptide applied to Primary Lung Cancer Cells, Non Malignant Brain Cells, Lung Cancer Brain Metastases Cells (MH1002, MH1016, H1915) analyzed through flow cytometry.
FIGS. 4A to 4C show binding of LBM2 peptide applied to Primary Lung Cancer Cells, Non Malignant Brain Cells, Lung Cancer Brain Metastases Cells (MH1002, MH1016, H1915) analyzed through flow cytometry.
FIGS. 6A to 6C show binding AMOT (LBM4) peptide applied to Primary Lung Cancer Cells, Non Malignant Brain Cells, Lung Cancer Brain Metastases Cells (MH1002, MH1016, H1915) analyzed through flow cytometry.
For each peptide, as the concentration of peptide goes up, there was a right shift indicating binding to the brain met cells, with minimal binding to the lung cancer primary cells, showing specificity of binding to the brain mets over the lung cancer.
On the technique in general: A flow cytometer gives signals particle by particle.

Test [2] deals with non-malignant brain cells. Description: peptide binding to non-malignant brain cells (FIGS. 3, 5, 7A).
In test [3] the test system is Primary Lung Cancer Cells. Description: peptide binding to primary lung cancer cells (FIGS. 3, 5, 7A).
Test [4] has as its system Lung Cancer Brain Metastases cells. Description: peptide binding to lung cancer brain metastases cells (FIGS. 3, 5, 7B). As to conditions: MH1002.

As for TLGLRPVPVATT [LBM2], the “flow cytometry shift with peptide applied to lung cancer BM cells” value in test [1] was “right shift”. Besides, the “binding to non-malignant brain cells” value in test [2] is reported as “no binding”. The “binding to primary lung cancer cells” value in test [3] was “no binding”. Moreover, the “binding to Lung Cancer Brain Metastases cells” value in test [4] is given as “positive binding”.
As for SYPSNALSLHKY [LBM1], the “flow cytometry shift with peptide applied to lung cancer BM cells” value in test [1] is “right shift”. Further, the “binding to non-malignant brain cells” value in test [2] is on record as “no binding”. For the same sequence, the “binding to primary lung cancer cells” value in test [3] is “no binding”. For the same sequence, the “binding to Lung Cancer Brain Metastases cells” value in test [4] is listed as “positive binding”.
